From the NIST ThermoML archive (doi:10.1007/s10765-006-0088-4)
± gives the expanded uncertainty stated by the source.

Details: Liquid; for vapor or sublimation pressure: Closed cell (Static) method

CCC [propane]
Details	vapor or sublimation pressure [kPa]
280 K	583.1 ± 1.2
300 K	999 ± 2.1
320 K	1599.8 ± 3.3
340 K	2432.2 ± 5
360 K	3556.3 ± 7.2
365 K	3894.1 ± 7.9
367 K	4036.8 ± 8.2
369 K	4184.4 ± 8.5

mass density [kg/m3]
Details	340 K	360 K	380 K	400 K
3000 kPa, Vibrating tube method	418.08 ± 0.51	–	–	–
5000 kPa, Vibrating tube method	433.15 ± 0.54	380.52 ± 0.48	–	–
10000 kPa, Buoyancy - hydrostatic balance with magnetic suspension - two sinkers	457.22 ± 0.51	423.91 ± 0.47	383.94 ± 0.42	334.82 ± 0.37
20000 kPa, Buoyancy - hydrostatic balance with magnetic suspension - one sinker	486.49 ± 0.54	463.18 ± 0.52	438.11 ± 0.49	412.17 ± 0.46
30000 kPa, Buoyancy - hydrostatic balance with magnetic suspension - one sinker	506.41 ± 0.56	486.97 ± 0.55	466.65 ± 0.53	446.42 ± 0.51
40000 kPa, Bellows volumetry	521.92 ± 0.58	504.75 ± 0.56	486.9 ± 0.54	469.52 ± 0.52
50000 kPa, Bellows volumetry	534.58 ± 0.6	519.13 ± 0.59	502.92 ± 0.57	487.17 ± 0.56
60000 kPa, Bellows volumetry	545.76 ± 0.61	531.24 ± 0.6	516.27 ± 0.59	501.88 ± 0.58
70000 kPa, Bellows volumetry	555.4 ± 0.62	541.74 ± 0.61	527.68 ± 0.6	514.4 ± 0.59
80000 kPa, Bellows volumetry	564.13 ± 0.63	551.28 ± 0.62	537.77 ± 0.61	525.29 ± 0.6
90000 kPa, Bellows volumetry	571.96 ± 0.64	559.54 ± 0.63	546.83 ± 0.62	534.99 ± 0.61
100000 kPa, Bellows volumetry	579.21 ± 0.65	567.52 ± 0.64	555.08 ± 0.63	543.68 ± 0.62
120000 kPa, Bellows volumetry	592 ± 0.67	581.13 ± 0.66	569.69 ± 0.65	559.13 ± 0.64
140000 kPa, Bellows volumetry	603.23 ± 0.68	593.24 ± 0.67	582.4 ± 0.66	572.43 ± 0.65
160000 kPa, Bellows volumetry	613.42 ± 0.74	603.94 ± 0.74	593.57 ± 0.74	584.27 ± 0.74
180000 kPa, Bellows volumetry	622.47 ± 0.76	613.6 ± 0.75	603.76 ± 0.75	594.86 ± 0.75
200000 kPa, Bellows volumetry	631.34 ± 0.78	622.28 ± 0.76	612.75 ± 0.77	604.47 ± 0.77
